# Source: article PMC6472409, “Dishevelled-3 conformation dynamics analyzed by FRET-based biosensors reveals a key role of casein kinase 1” (Nature Communications, 2019)
# Numbering of substitutions follows the chain as printed. Where a SMILES comes first, the peptide text is derived from it. [ ]: non-standard residue; d: D form. pS = N[C@@H](COP(=O)(O)O)C(=O)O
# Assays:
# Type in all cases: binding
# [1] = target: T1, PDZ domain of human DVL2 wild type (aa 265–361) (Homo sapiens, UniProt O14641); assay: NMR titration with DVL C-terminal peptide, PDZ wild type
# T1 construct: The PDZ domain of human DVL2 wild type (aa 265–361); His6-tag (N, cleaved yes); lipoyl domain (N, cleaved yes); made in house; host or cells: E. coli BL21 (DE3)
# T1 sequence (O14641 265-361): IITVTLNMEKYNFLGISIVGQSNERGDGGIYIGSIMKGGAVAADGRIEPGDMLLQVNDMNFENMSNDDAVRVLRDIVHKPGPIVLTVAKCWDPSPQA
# Protocol: (§1) The PDZ domain of human DVL2 wild type (aa 265–361) and phosphorylation-mimicking variant S286E + S329E were cloned into pET vector containing an N-terminal His6-tag and a lipoyl domain separated by a Tobacco Etch Virus (TEV) protease digestion site from the N-terminus of the inserts. Both proteins were expressed at high yields in E. coli BL21 (DE3) strain (New England Biolabs, #C2527I). For the NMR studies, ^13C- and ^15N-labeled proteins were prepared by growing cells in minimal medium supplemented with ^15NH4Cl (1 g/l) and ^13C6 glucose (2 g/l) as the sole nitrogen and carbon sources, respectively. Cells were grown at 37 °C to an OD600 of approximately 0.8 and protein expression was induced with 0.5 mM IPTG. Cells were lysed by sonication and centrifuged at 15,000g. Three purification steps were used for both proteins: Ni-NTA chromatography followed by overnight TEV cleavage to remove the N-terminal His6-tag and the lipoyl domain, ion exchange chromatography, and size exclusion chromatography. Finally, the untagged PDZ domain wild type or phosphorylation-mimicking variant was concentrated and exchanged to buffer for NMR or binding experiments containing 20 mM HEPES (pH 6.8) and 50 mM KCl. Human CK1ε (aa 1–294) was also cloned into a pET vector and purified using three purification steps as described for the PDZ domain.
# (§2) A 4D HC(CC-TOCSY(CO))NH and a 4D ^13C, ^15N edited HMQC-NOESY-HSQC experiments were recorded at CEITEC Josef Dadok National NMR Centre on a 700 MHz Bruker Avance III spectrometers equipped with ^1H/^13C/^15N TCI cryogenic probe head with z-axis gradients. 4D spectra were processed with SSA package[59] and analyzed with SPARKY. Chemical shift assignments were obtained automatically using 4D-CHAINS[60] and checked manually. NMR titrations were performed in series of ^1H, ^15N HSQC spectra using 100 μM of ^15N-labeled protein (wild type or phosphorylation-mimicking variant) and increasing amounts of C-terminal DVL peptide (pS700) consisted of aa 698–716 from DVL3 (stock concentration of 800 μM). Steady-state^15N-^1H Nuclear Overhauser Effect values were measured under a steady-state condition with a 30 s interscan relaxation delay. Reference spectra and the spectra measured under steady-state conditions were measured in an interleaved manner.
# [2] = target: T2, PDZ (S286E/S329E) of human DVL2 (Homo sapiens, UniProt O14641, S286E/S329E); assay: NMR titration with DVL C-terminal peptide, PDZ phosphorylation-mimicking variant
# T2 construct: The PDZ domain of human DVL2 wild type (aa 265–361) and phosphorylation-mimicking variant S286E + S329E; His6-tag (N, cleaved yes); lipoyl domain (N, cleaved yes); made in house; host or cells: E. coli BL21 (DE3)
# T2 sequence (O14641 265-361 S286E/S329E): T1 sequence (O14641 265-361) with S22E, S65E
# Protocol: as §1, §2
# [3] = target: T3, PDZ wild type from DVL2 (Homo sapiens, UniProt O14641); assay: Surface plasmon resonance, PDZ wild type; conditions: for Response (R.U.): SPR, equilibrium
# T3 construct: The PDZ domain of human DVL2 wild type (aa 265–361); His6-tag (N, cleaved yes); lipoyl domain (N, cleaved yes); made in house; host or cells: E. coli BL21 (DE3)
# T3 sequence (O14641 265-361): T1 sequence (O14641 265-361)
# Protocol: as §1
# (§3) SPR experiments were performed on a Biacore T200 instrument (GE Healthare). The wild type and phosphorylation-mimicking variant of PDZ from DVL2 were immobilized on carboxy-methylated dextran matrix (CM5 chip S Series) using amino coupling. Non-reacted groups were blocked by 1 M ethanolamine. […] The C-terminal DVL peptide (aa 698–716 from DVL3; pS700) was injected at increasing concentrations and long enough to reach steady state. SPR responses were measured and corrected for the response of the blank. Data points were collected from each binding sensogram before the end of the injection (equilibrium) and the dissociation constants were estimated by fitting the response at equilibrium versus the C-terminal peptide concentration using the following equation: Req = C*Rmax/(KD + C), where Req is the binding level in Response Units at different C-terminal peptide concentrations (C), Rmax the response at saturation (fitted), and KD the apparent dissociation constant (fitted).
# [4] = target: T4, PDZ (S286E/S329E) from DVL2 (Homo sapiens, UniProt O14641, S286E/S329E); assay: Surface plasmon resonance, PDZ phosphorylation-mimicking variant; conditions: for Response (R.U.): SPR, equilibrium
# T4 construct: The PDZ domain of human DVL2 wild type (aa 265–361) and phosphorylation-mimicking variant S286E + S329E; His6-tag (N, cleaved yes); lipoyl domain (N, cleaved yes); made in house; host or cells: E. coli BL21 (DE3)
# T4 sequence (O14641 265-361 S286E/S329E): T1 sequence (O14641 265-361) with S22E, S65E
# Protocol: as §1, §3
# [5] = Biacore T200, PDZ immobilized on CM5 chip, steady-state fit, read-out: apparent KD (SPR, one-site binding model)
structure (smiles),measurement,setting,value
CSCC[C@H](NC(=O)[C@@H](NC(=O)[C@H](CC(=O)O)NC(=O)[C@@H](NC(=O)[C@H](Cc1ccccc1)NC(=O)[C@H](Cc1ccccc1)NC(=O)[C@H](CCC(=O)O)NC(=O)[C@H](CO)NC(=O)[C@@H]1CCCN1C(=O)[C@H](CC(N)=O)NC(=O)CNC(=O)[C@H](CCSC)NC(=O)[C@H](C)NC(=O)[C@H](CCSC)NC(=O)[C@H](CCCNC(=N)N)NC(=O)[C@H](Cc1ccccc1)NC(=O)[C@H](COP(=O)(O)O)NC(=O)[C@H](CCC(N)=O)NC(=O)[C@@H](N)CCCNC(=N)N)C(C)C)C(C)C)C(=O)O [DVL C-terminal peptide] (H-RQ[pS]FRMAMGNPSEFFVDVM-OH),Δδ (p.p.m.) F277,[1]; pFRMA 50 uM,0.028 p.p.m.
same,Δδ (p.p.m.) H342,[1]; pFRMA 50 uM,0.043 p.p.m.
same,Δδ (p.p.m.) K301,[1]; pFRMA 50 uM,0.035 p.p.m.
same,Δδ (p.p.m.) F277,[1]; pFRMA 100 uM,0.046 p.p.m.
same,Δδ (p.p.m.) H342,[1]; pFRMA 100 uM,0.07 p.p.m.
same,Δδ (p.p.m.) K301,[1]; pFRMA 100 uM,0.06 p.p.m.
same,Δδ (p.p.m.) F277,[1]; pFRMA 200 uM,0.066 p.p.m.
same,Δδ (p.p.m.) H342,[1]; pFRMA 200 uM,0.109 p.p.m.
same,Δδ (p.p.m.) K301,[1]; pFRMA 200 uM,0.092 p.p.m.
same,Δδ (p.p.m.) F277,[1]; pFRMA 400 uM,0.112 p.p.m.
same,Δδ (p.p.m.) H342,[1]; pFRMA 400 uM,0.174 p.p.m.
same,Δδ (p.p.m.) K301,[1]; pFRMA 400 uM,0.148 p.p.m.
same,affinity of phosphorylation-mimicking variant compared with PDZ wt (NMR),"[2]; fast exchange peaks, quantitative analysis",two-fold weaker affinity
same,Δδ (p.p.m.) F277,[2]; pFRMA 50 uM,0.02 p.p.m.
same,Δδ (p.p.m.) H342,[2]; pFRMA 50 uM,0.032 p.p.m.
same,Δδ (p.p.m.) K301,[2]; pFRMA 50 uM,0.026 p.p.m.
same,Δδ (p.p.m.) F277,[2]; pFRMA 100 uM,0.03 p.p.m.
same,Δδ (p.p.m.) H342,[2]; pFRMA 100 uM,0.056 p.p.m.
same,Δδ (p.p.m.) K301,[2]; pFRMA 100 uM,0.044 p.p.m.
same,Δδ (p.p.m.) F277,[2]; pFRMA 200 uM,0.048 p.p.m.
same,Δδ (p.p.m.) H342,[2]; pFRMA 200 uM,0.093 p.p.m.
same,Δδ (p.p.m.) K301,[2]; pFRMA 200 uM,0.071 p.p.m.
same,Δδ (p.p.m.) F277,[2]; pFRMA 400 uM,0.084 p.p.m.
same,Δδ (p.p.m.) H342,[2]; pFRMA 400 uM,0.164 p.p.m.
same,Δδ (p.p.m.) K301,[2]; pFRMA 400 uM,0.128 p.p.m.
same,Kd,[3]; [5],305 µM
same,Response (R.U.),[3]; pFRMA 3.125 uM,3.399 R.U.
same,Response (R.U.),[3]; pFRMA 6.25 uM,3.725 R.U.
same,Response (R.U.),[3]; pFRMA 12.5 uM,4.287 R.U.
same,Response (R.U.),[3]; pFRMA 25 uM,4.98 R.U.
same,Response (R.U.),[3]; pFRMA 50 uM,6.694 R.U.
same,Response (R.U.),[3]; pFRMA 100 uM,9.137 R.U.
same,Response (R.U.),[3]; pFRMA 200 uM,14.3144 R.U.
same,Response (R.U.),[3]; pFRMA 400 uM,24.5768 R.U.
same,Kd,[4]; [5],754 µM
same,Response (R.U.),[4]; pFRMA 3.125 uM,1.637 R.U.
same,Response (R.U.),[4]; pFRMA 6.25 uM,1.9305 R.U.
same,Response (R.U.),[4]; pFRMA 12.5 uM,2.181 R.U.
same,Response (R.U.),[4]; pFRMA 25 uM,2.621 R.U.
same,Response (R.U.),[4]; pFRMA 50 uM,3.732 R.U.
same,Response (R.U.),[4]; pFRMA 100 uM,5.135 R.U.
same,Response (R.U.),[4]; pFRMA 200 uM,8.677 R.U.
same,Response (R.U.),[4]; pFRMA 400 uM,16.554 R.U.
same,peptide affinity of phosphorylation-mimicking variant compared with PDZ wt (SPR),[4]; apparent dissociation constants from SPR,two-fold lower peptide affinity
